Results published in patent publication US8987250B2 (Gilead Sciences, Inc., priority 2012, dated 2015).
pEC50: −log10 of the molar value.

tested on: HIV-IIIb; experiment: Test A: Antiviral Assay in MT4 Cells; format: cell-based; conditions: Human immunodeficiency virus 1, IIIB, MT4, 120 h, Table 2; MT-4 cells infected with HIV-IIIb, 5 days of incubation, CellTiter-Glo; read-out: EC50
Procedure: The antiviral properties of a compound of the invention may be determined using Test A described below.
Test A: Antiviral Assay in MT4 Cells
For the antiviral assay utilizing MT-4 cells, 0.4 μL of […] test concentration of 3-fold serially diluted compound in DMSO was added to 40 μL of cell growth medium (RPMI 1640, 10% FBS, 1% penicilline/Streptomycine, 1% L-Glutamine, 1% HEPES) in each well of 384-well assay plates (10 concentrations) in quadruplicate.
One mL aliquots of 2×10e6 MT-4 cells were pre-infected for 1 and 3 hours respectively, @ 37° C. with 25 uL (MT4) or of either cell growth medium (mock-infected) or a fresh 1:250 dilution of an HIV-IIIb concentrated ABI stock (0.004m.o.i. for MT4 cells). Infected and uninfected cells were diluted in cell growth medium and 35 uL of 2000 (for MT4) cells was added to each well of the assay plates.
Assay plates were then incubated in a 37° C. incubator. After 5 days of incubation, […] of 2× concentrated CellTiter-Glo™ Reagent (catalog #G7573, Promega Biosciences, Inc., Madison, Wis.) was added to each well of the assay plate. Cell lysis was carried out by incubating at room temperature for 2-3 min and then chemiluminescence was read using the Envision reader (PerkinElmer). […]

First: CCn1cc2cc(-c3cc(-c4nc5cc(C)c([C@H](OC(C)(C)C)C(=O)O)c(-c6ccc(Cl)cc6)c5s4)ccn3)ccc2n1 [Compound 173, (S)-2-tert-butoxy-2-(7-(4-chlorophenyl)-2-(2-(2-ethyl-2H-indazol-5-yl)pyridin-4-yl)-5-methylbenzo[d]thiazol-6-yl)acetic acid]
Second: Cc1cc2nc(-c3ccnc(-c4ccc5nn(C(F)F)cc5c4)c3)sc2c(-c2ccc(Cl)cc2)c1[C@H](OC(C)(C)C)C(=O)O [Compound 176, (S)-2-tert-butoxy-2-(7-(4-chlorophenyl)-2-(2-(2-(difluoromethyl)-2H-indazol-5-yl)pyridin-4-yl)-5-methylbenzo[d]thiazol-6-yl)acetic acid]
The pEC50 of the first is 0.22 log units higher: 7.96 for the first, 7.74 for the second.

`CCn1ncc2cc(-c3cc(-c4nc5cc(C)c([C@H](OC(C)(C)C)C(=O)O)c(-c6ccc(Cl)cc6)c5s4)ccn3)ccc21` [Compound 174, (S)-2-tert-butoxy-2-(7-(4-chlorophenyl)-2-(2-(1-ethyl-1H-indazol-5-yl)pyridin-4-yl)-5-methylbenzo[d]thiazol-6-yl)acetic acid] and `Cc1cc2nc(-c3ccnc(-c4ccc5c(cnn5C(F)F)c4)c3)sc2c(-c2ccc(Cl)cc2)c1[C@H](OC(C)(C)C)C(=O)O` [Compound 177, (S)-2-tert-butoxy-2-(7-(4-chlorophenyl)-2-(2-(1-(difluoromethyl)-1H-indazol-5-yl)pyridin-4-yl)-5-methylbenzo[d]thiazol-6-yl)acetic acid] are within 0.2 log units of each other in pEC50: 7.59 for the first, 7.41 for the second.

Compared with `Cc1cc2nc(-c3ccnc(-c4ccc5c(cnn5C5CC5)c4)c3)sc2c(-c2ccc(Cl)cc2)c1[C@H](OC(C)(C)C)C(=O)O` [Compound 175, (S)-2-tert-butoxy-2-(7-(4-chlorophenyl)-2-(2-(1-cyclopropyl-1H-indazol-5-yl)pyridin-4-yl)-5-methylbenzo[d]thiazol-6-yl)acetic acid], `Cc1cc2nc(-c3ccnc(-c4ccc5c(cnn5C5CNC5)c4)c3)sc2c(-c2ccc(Cl)cc2)c1[C@H](OC(C)(C)C)C(=O)O` [Compound 179, (S)-2-(2-(2-(1-(azetidin-3-yl)-1H-indazol-5-yl)pyridin-4-yl)-7-(4-chlorophenyl)-5-methylbenzo[d]thiazol-6-yl)-2-tert-butoxyacetic acid] is 0.34 log units lower in pEC50: 7.48 for the first, 7.14 for the second. The first is the more potent here.

Compared with `Cc1cc2nc(-c3ccnc(-c4ccc5c(cnn5C(F)(F)F)c4)c3)sc2c(-c2ccc(Cl)cc2)c1[C@H](OC(C)(C)C)C(=O)O` [Compound 178, (S)-2-tert-butoxy-2-(7-(4-chlorophenyl)-5-methyl-2-(2-(1-(trifluoromethyl)-1H-indazol-5-yl)pyridin-4-yl)benzo[d]thiazol-6-yl)acetic acid], `Cc1cc2nc(-c3ccnc(-c4ccc5c(cnn5C)n4)c3)sc2c(-c2ccc(Cl)cc2)c1[C@H](OC(C)(C)C)C(=O)O` [Compound 180, (S)-2-tert-butoxy-2-(7-(4-chlorophenyl)-5-methyl-2-(2-(1-methyl-1H-pyrazolo[4,3-b]pyridin-5-yl)pyridin-4-yl)benzo[d]thiazol-6-yl)acetic acid] is 1.25 log units higher in pEC50: 7.05 for the first, 8.30 for the second.

Compared with `Cc1cc2c(c(-c3ccc(Cl)cc3)c1[C@H](OC(C)(C)C)C(=O)O)n(C1CCN(C)CC1)c(=O)n2C` [Compound 181, (S)-2-tert-butoxy-2-(4-(4-chlorophenyl)-1,6-dimethyl-3-(1-methylpiperidin-4-yl)-2-oxo-2,3-dihydro-1H-benzo[d]imidazol-5-yl)acetic acid], `Cc1cc2nc(-c3cccn(-c4ccc5c(cnn5C)c4)c3=O)sc2c(-c2ccc(Cl)cc2)c1[C@H](OC(C)(C)C)C(=O)O` [Compound 182, (S)-2-tert-butoxy-2-(7-(4-chlorophenyl)-5-methyl-2-(1-(1-methyl-1H-indazol-5-yl)-2-oxo-1,2-dihydropyridin-3-yl)benzo[d]thiazol-6-yl)acetic acid] is 0.47 log units lower in pEC50: 7.57 for the first, 7.10 for the second. The first is the more potent here.
